Measured values taken from patent US8932581B2, “Calcium-mediated effects of coral and methods of use thereof” (Ben Gurion University of the Negev Research and Development …, priority 2007, dated 2015).

Test system: mesenchymal stem cells (MSCs)
Assay: Scanning Electron Micrographs of MSC density on coral biomatrices with and without calcium chelator
Assay type: cell-based, Mus-musculus
Conditions: incubation with the calcium chelator; FIGS. 2Aj, 2Al
Method: Two biomaterial derivatives were prepared, one from the hydrocoral M. dichotoma (designated MIL) and the other, for purposes of comparison, from scleractinian coral P. lutea—(designated POR). Colonies of M. dichotoma were collected from the shallow seawater zones adjacent to the Interuniversity Institute of Marine Science (IUD in Eilat, Israel, at depths of 6-8 meters. Each colony was cut into fragments and glued with epoxy resin into the tops of PVC tubes. After an adjustment period of 3 months, cloned fragments were transferred to a laboratory tank system. POR were prepared from cores drilled out from long-lived massive colonies.
Both types of skeleton were cut into blocks and bleached using a commercial hypochloride solution. After this preliminary cleaning process, samples were rinsed with distilled water and air-dried. […]
Images were acquired using an Axiovert-200 (Zeiss, Germany) inverted microscope equipped with X20 Plan-Neofluar (N.A. 0.50) and X40 LD-Acrhoplan objectives (N.A. 0.60) and a cooled CCD camera (SensiCam, PCO, USA) controlled by Metamorph (version 6.2, Universal Imaging, Downingtown, Pa.). […] Cells were counted manually, and the numbers were averaged and interpolated for 1 mm^2 of crystalline surface.

## O=C(O)CN(CCOCCOCCN(CC(=O)O)CC(=O)O)CC(=O)O [EGTA, O,O′-bis(2-aminoethyl)ethyleneglycol tetraacetic acid]
  local cell density on coral seeded with MSCs, effect of calcium chelator: further increased local cell density
